Test results from paper PMC7056826, “Crystal Structure of the Chloroplastic Glutamine Phosphoribosylpyrophosphate Amidotransferase GPRAT2 From Arabidopsis thaliana” (Frontiers in Plant Science, 2020).

T1: AtGPRAT2 (Arabidopsis thaliana, UniProt Q9STG9, R264K)
T1 construct: gene ASE2; residues 75-561 without predicted chloroplast transit peptide, C-terminal His tag (pET22b), E. coli BL21; propeptide autocatalytically removed, first visible residue Cys87 (87-546 visible); 4Fe-4S cluster; homo-tetramer in crystal
T1 sequence (Q9STG9 87-561 R264K): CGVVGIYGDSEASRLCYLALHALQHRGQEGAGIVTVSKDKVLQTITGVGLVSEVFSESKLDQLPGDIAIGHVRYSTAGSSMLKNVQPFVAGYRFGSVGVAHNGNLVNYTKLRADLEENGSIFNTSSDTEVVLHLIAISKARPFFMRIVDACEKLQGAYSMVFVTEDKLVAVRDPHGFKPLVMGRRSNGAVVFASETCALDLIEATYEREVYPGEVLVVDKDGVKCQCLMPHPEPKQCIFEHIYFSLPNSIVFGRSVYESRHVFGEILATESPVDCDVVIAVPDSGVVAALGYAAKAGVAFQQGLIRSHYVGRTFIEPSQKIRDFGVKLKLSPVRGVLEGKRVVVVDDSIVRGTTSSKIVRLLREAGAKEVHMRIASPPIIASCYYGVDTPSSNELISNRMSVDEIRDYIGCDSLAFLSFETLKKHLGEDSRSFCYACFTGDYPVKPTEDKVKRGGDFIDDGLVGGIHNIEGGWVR

T2: AtGPRAT2 (Arabidopsis thaliana, UniProt Q9STG9)
T2 construct: gene ASE2; residues 75-561 without predicted chloroplast transit peptide, C-terminal His tag (pET22b), E. coli BL21; propeptide autocatalytically removed, first visible residue Cys87 (87-546 visible); 4Fe-4S cluster; homo-tetramer in crystal
T2 sequence (Q9STG9 87-561): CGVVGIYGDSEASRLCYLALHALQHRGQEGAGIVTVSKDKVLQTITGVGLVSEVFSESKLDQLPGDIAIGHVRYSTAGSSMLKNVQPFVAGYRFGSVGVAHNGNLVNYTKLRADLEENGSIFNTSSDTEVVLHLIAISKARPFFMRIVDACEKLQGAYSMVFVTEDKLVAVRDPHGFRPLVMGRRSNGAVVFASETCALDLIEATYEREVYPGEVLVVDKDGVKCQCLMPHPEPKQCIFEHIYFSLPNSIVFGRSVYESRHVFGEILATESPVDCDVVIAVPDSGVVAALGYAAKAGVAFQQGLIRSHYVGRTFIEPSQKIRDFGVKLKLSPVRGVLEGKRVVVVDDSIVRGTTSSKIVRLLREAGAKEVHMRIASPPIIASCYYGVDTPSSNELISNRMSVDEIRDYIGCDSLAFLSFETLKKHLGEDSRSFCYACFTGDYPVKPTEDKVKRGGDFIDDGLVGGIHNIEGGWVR

T3: AtGPRAT2 (Arabidopsis thaliana, UniProt Q9STG9, Y329A)
T3 construct: gene ASE2; residues 75-561 without predicted chloroplast transit peptide, C-terminal His tag (pET22b), E. coli BL21; propeptide autocatalytically removed, first visible residue Cys87 (87-546 visible); 4Fe-4S cluster; homo-tetramer in crystal
T3 sequence (Q9STG9 87-561 Y329A): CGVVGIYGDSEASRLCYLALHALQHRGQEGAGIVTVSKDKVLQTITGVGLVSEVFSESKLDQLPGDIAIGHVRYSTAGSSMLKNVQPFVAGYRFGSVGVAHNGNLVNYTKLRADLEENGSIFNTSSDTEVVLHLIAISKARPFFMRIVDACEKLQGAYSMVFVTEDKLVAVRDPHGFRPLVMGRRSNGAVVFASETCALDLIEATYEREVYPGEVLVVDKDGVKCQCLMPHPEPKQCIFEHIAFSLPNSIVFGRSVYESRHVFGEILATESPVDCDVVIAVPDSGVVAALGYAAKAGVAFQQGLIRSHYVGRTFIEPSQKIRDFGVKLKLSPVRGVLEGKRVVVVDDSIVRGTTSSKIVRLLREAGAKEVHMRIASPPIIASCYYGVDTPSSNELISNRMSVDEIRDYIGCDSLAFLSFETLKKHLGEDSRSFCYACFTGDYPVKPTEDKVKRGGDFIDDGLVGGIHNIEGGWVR


Assays:
[1] = molecular target: T1, AtGPRAT2; experiment: isothermal titration calorimetry, single site model; assay type: binding; details: 20 mM HEPES pH 7.5, 200 mM NaCl, 25 °C; stated gain
[2] = molecular target: T2, AtGPRAT2; experiment: coupled glutamate dehydrogenase assay, NADH at […] nm, mixed inhibition model; assay type: biochemical
[3] = molecular target: T3, AtGPRAT2; experiment: isothermal titration calorimetry, single site model; assay type: binding
[4] = molecular target: T2, AtGPRAT2; experiment: as above; assay type: binding
Description: isothermal titration calorimetry, single site model on AtGPRAT2 | isothermal titration calorimetry (ITC) assay with wildtype, R264K and Y329A mutants of AtGPRAT2

[5] = substrate: O=P(O)(O)OC[C@H]1O[C@H](OP(=O)(O)OP(=O)(O)O)[C@H](O)[C@@H]1O; experiment: purified protein; assay type: biochemical, Arabidopsis thaliana; details: 10 mM Gln, 37.5 mM NAD+, 110 mM potassium phosphate pH 8.0, no inhibitor
[6] = molecular target: the molecule itself; experiment: crystal structure; sitting-drop vapor diffusion at 291 K; 0.1 M sodium citrate tribasic pH 5.6, 1.5 M ammonium phosphate monobasic, 0.1 M citric acid pH 3.4; space group P3121, two molecules in the asymmetric unit; tetramer assigned with the PISA server

Ki [2] [nM] | Kd [3] [nM] | Kd [4] [nM] | Molecule | binding abolished [1] | Km [5] [µM] | stoichiometry N [6]
5290 | 1750 ± 38.4 | 165 ± 15.8 | CC(C)n1nc(CC(=O)O)nc1-c1ccc(Cl)cc1 [DAS734, [5-(4-chlorophenyl)-1-isopropyl-1H-[1,2,4]triazol-3-yl]-acetic acid] | the R264K mutation abolished the binding of DAS734 to AtGPRAT2 | – | –
– | – | – | Arabidopsis thaliana chloroplastic glutamine phosphoribosylpyrophosphate amidotransferase 2, AtGPRAT2^75-561 (enzyme, UniProt Q9STG9 75-561, looked up, AtGPRAT2 (At4g34740), Arabidopsis thaliana, residues 75-561, without the predicted chloroplast transit peptide; Each protomer carries a 4Fe-4S cofactor; also called GPRATase) CGVVGIYGDSEASRLCYLALHALQHRGQEGAGIVTVSKDKVLQTITGVGLVSEVFSESKLDQLPGDIAIGHVRYSTAGSSMLKNVQPFVAGYRFGSVGVAHNGNLVNYTKLRADLEENGSIFNTSSDTEVVLHLIAISKARPFFMRIVDACEKLQGAYSMVFVTEDKLVAVRDPHGFRPLVMGRRSNGAVVFASETCALDLIEATYEREVYPGEVLVVDKDGVKCQCLMPHPEPKQCIFEHIYFSLPNSIVFGRSVYESRHVFGEILATESPVDCDVVIAVPDSGVVAALGYAAKAGVAFQQGLIRSHYVGRTFIEPSQKIRDFGVKLKLSPVRGVLEGKRVVVVDDSIVRGTTSSKIVRLLREAGAKEVHMRIASPPIIASCYYGVDTPSSNELISNRMSVDEIRDYIGCDSLAFLSFETLKKHLGEDSRSFCYACFTGDYPVKPTEDKVKRGGDFIDDGLVGGIHNIEGGWVR | – | 350 | 4
